System: VDCC
Experiment: VDCC inhibition: calcium entry (Fluo-4 fluorescence) in SH-SY5Y cells after depolarization with 60 mM KCl
Assay type: cell-based, human
Details: 10 min exposure, 60 mM KCl depolarization
Method: This assay is aimed to determine the VDCC blocker activity of compounds; it is performed using SH-SY5Y neuroblastoma cells. SH-SY5Y cells were plated at 5x10^5 cells per well into Black / Clear Bottom 96-well culture plate, 48 hours before treatment. Cells were loaded with Fluo-4, 5 µM and pluronic acid, 0.1%, for 30 min at 37°C, 5%CO2, following a incubation of 15 min at RT in Krebs-HEPES solution. Immediately cells are exposed to the samples at different concentrations for 10 min. The compounds were tested at […], depending on potency. After the treatment, calcium entry is measured as fluorescence in a Fluostar Optima plate reader (BMG) in response to depolarization with 60 mM KCl. The excitation wavelength was 485 nm, and that of emission 520 nm.

| SMILES | % of calcium entry inhibition (compound at 10^-5 (M)) [%] | % of calcium entry inhibition (compound at 10^-6 (M)) | % of calcium entry inhibition (compound at 10^-7 (M)) [%] |
| --- | --- | --- | --- |
| COCOc1cc(OC)ccc1C(=O)NCCCOc1c(Br)cc(CCNC(=O)c2ccc(OC)cc2OCOC)cc1Br [Compound 4] | 87.3 ± 5 | 27.3 ± 5% | 6 ± 0 |
| COc1cc(O)c(C(=O)NCCCCCNC(=O)c2cc(Br)c(OC)cc2O)cc1Br [Compound 5] | 21.8 ± 5 | – | – |
| COCOc1cc(OC)ccc1C(=O)NCCCCCCNC(=O)c1ccc(OC)cc1OCOC [Compound 3] | 37.5 ± 7 | 6,6 ± 2% | – |

Source: patent EP1798220A1, “Dibenzene derivatives as calcium channel blockers” (Neuropharma S.A., priority 2005, dated 2007)
